Test systems include HOP-92 NSCLC; NCI-H23 lung; OVCAR-5 ovarian; SF-539 CNS; SK-OV-3 ovarian; U251 CNS; EKVX NSCLC; HCC-2998 colon; IGROV1 ovarian; K-562 leukemia; MCF7 breast; MALME-3M melanoma; RXF 393 renal.
Assay in all cases: DTP human tumour cell line panel, 48 h

Each structure is given as a SMILES string.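 How tested: cells in 96-well plates exposed to compound for 48 hours at five concentrations. Here, GI50 denotes the concentration required for 50% inhibition of growth. TGI is the concentration that stops growth completely.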

Turning to `Clc1ccc2c(NCCNc3nc(-c4ccccc4)cc(-c4ccccc4)n3)ccnc2c1`, the GI50 with HOP-92 NSCLC was 1.61 µM; in the test on NCI-H23 lung, 1.87 µM; with OVCAR-5 ovarian, 1.68 µM; in the test with SF-539 CNS, 1.79 µM; in the test on SK-OV-3 ovarian, 1.75 µM; with U251 CNS, 1.96 µM. Further, the TGI in the test on HOP-92 NSCLC stood at 3.14 µM; in the test on NCI-H23 lung, 3.8 µM; in the test with OVCAR-5 ovarian, 3.17 µM; in the test with SF-539 CNS, 3.35 µM; with SK-OV-3 ovarian, 3.33 µM; with U251 CNS, 3.59 µM.
As to `N#Cc1c(N2CCOCC2)ncn(-c2ccccc2)c1=O`, the concentration for total growth inhibition (TGI) with EKVX NSCLC, with HCC-2998 colon, in the test with HOP-92 NSCLC, in the test on IGROV1 ovarian, in the test with K-562 leukemia and in the test with MCF7 breast was more than 100 µM each time. The TGI in the test with NCI-H23 lung, in the test on OVCAR-5 ovarian, in the test on SF-539 CNS, with SK-OV-3 ovarian and in the test with U251 CNS was more than 100 µM throughout.
Consider `C(/COc1cccnc1)=N\NC1=NCCN1`, for which the TGI in the test on EKVX NSCLC, in the test on HCC-2998 colon, in the test on HOP-92 NSCLC, in the test with IGROV1 ovarian, in the test on K-562 leukemia and in the test on MALME-3M melanoma was more than 100 µM throughout. For the same compound, the TGI in the test with NCI-H23 lung, with OVCAR-5 ovarian, in the test on RXF 393 renal, in the test on SF-539 CNS, with SK-OV-3 ovarian and with U251 CNS was more than 100 µM in each case.
Regarding `CCC(C)(C)NC1=C(NC(C)=O)C(=O)c2ccccc2C1=O`, the TGI in the test with EKVX NSCLC is more than 75 µM; with HCC-2998 colon, more than 75 µM; in the test with IGROV1 ovarian, more than 75 µM; with K-562 leukemia it was 53.4 µM; in the test with MALME-3M melanoma it was more than 75 µM; with NCI-H23 lung, 73.7 µM. Also, the TGI in the test with RXF 393 renal, with SF-539 CNS, in the test with SK-OV-3 ovarian and with U251 CNS was more than 75 µM in each case.
On to `CCNC1CC(C(C)(C)NCC)CC=C1C` (stereo not given), for which the total growth inhibition concentration (TGI) with EKVX NSCLC, in the test with HCC-2998 colon, in the test with HOP-92 NSCLC, with IGROV1 ovarian, in the test on K-562 leukemia and in the test on MCF7 breast was more than 100 µM in each case. The TGI in the test on NCI-H23 lung, in the test with OVCAR-5 ovarian, with SF-539 CNS, in the test with SK-OV-3 ovarian and in the test with U251 CNS was more than 100 µM in each case.
In the case of `Cc1[nH]n(-c2ccccc2)c(=S)c1C(=O)c1ccccc1`, the TGI with EKVX NSCLC is 54.9 µM; in the test on HCC-2998 colon it was 77.1 µM; in the test with IGROV1 ovarian, more than 100 µM; in the test on K-562 leukemia it was more than 100 µM; in the test with MALME-3M melanoma, more than 100 µM; with NCI-H23 lung, more than 100 µM. The TGI in the test with OVCAR-5 ovarian was more than 100 µM; in the test with RXF 393 renal, 10.8 µM; with SF-539 CNS, more than 100 µM; with SK-OV-3 ovarian, more than 100 µM; in the test with U251 CNS it was more than 100 µM.
On to `Cc1c(-c2ccccc2)n(C)c2cn[nH]c(=O)c12`, for which the TGI was more than 100 µM in the test on EKVX NSCLC; 85.8 µM with HCC-2998 colon; more than 100 µM in the test on HOP-92 NSCLC; more than 100 µM in the test with IGROV1 ovarian; more than 100 µM in the test with K-562 leukemia; more than 100 µM in the test with MALME-3M melanoma. The TGI with MCF7 breast was more than 100 µM; with NCI-H23 lung it was more than 100 µM; in the test on OVCAR-5 ovarian, more than 100 µM; in the test on SF-539 CNS, more than 100 µM; in the test with SK-OV-3 ovarian it was 61.2 µM; in the test on U251 CNS, more than 100 µM.
On to `CC(C)(C)OC(=O)C1/C(=C/CO)CN1C(=O)OC(C)(C)C` (stereo not given), for which the TGI in the test with EKVX NSCLC, in the test with HCC-2998 colon, with HOP-92 NSCLC, with IGROV1 ovarian, in the test with K-562 leukemia and in the test on MALME-3M melanoma was more than 100 µM throughout. In addition, the TGI in the test with MCF7 breast, in the test with NCI-H23 lung, in the test on OVCAR-5 ovarian, in the test with SF-539 CNS and with SK-OV-3 ovarian was more than 100 µM in each case.
`c1ccc2cc3n[se]nc3cc2c1`: the TGI in the test with EKVX NSCLC, in the test with HCC-2998 colon, in the test on IGROV1 ovarian, in the test on K-562 leukemia, in the test on MALME-3M melanoma and in the test with NCI-H23 lung was more than 100 µM in each case. For the same compound, the TGI in the test with OVCAR-5 ovarian, with RXF 393 renal, in the test on SF-539 CNS, in the test with SK-OV-3 ovarian and in the test on U251 CNS was more than 100 µM throughout.
Regarding `Cc1ccc(S(=O)(=O)n2ccn3c(=O)cc(C)nc23)cc1`, the total growth inhibition concentration (TGI) in the test with EKVX NSCLC, in the test on HOP-92 NSCLC, in the test on IGROV1 ovarian, with K-562 leukemia, in the test on MALME-3M melanoma and in the test with MCF7 breast was more than 10 µM each time. Besides, the concentration for total growth inhibition (TGI) in the test on NCI-H23 lung, in the test with OVCAR-5 ovarian, in the test with RXF 393 renal, with SF-539 CNS, in the test on SK-OV-3 ovarian and in the test with U251 CNS was more than 10 µM throughout.
As to `CCCCCCCCCCCCCCCCCCNc1ccn(C2OC(CO)C(OP(=O)(O)OCC3CCC(n4ccc(N)nc4=O)O3)C2O)c(=O)n1` (stereo not given), the TGI was more than 100 µM with EKVX NSCLC; more than 100 µM in the test on HOP-92 NSCLC; more than 100 µM with IGROV1 ovarian; 94.8 µM with MALME-3M melanoma; more than 100 µM with NCI-H23 lung; more than 100 µM with OVCAR-5 ovarian. Also, the total growth inhibition concentration (TGI) in the test with RXF 393 renal was 45.1 µM; with SF-539 CNS it was more than 100 µM; with SK-OV-3 ovarian, more than 100 µM; in the test with U251 CNS, more than 100 µM.
In the case of `C=C1C(=O)C=C2C=C3C(=O)C(C)(C)C[C@]3(O)C12C` (stereo not given in full), the TGI came out at 51.2 µM in the test with EKVX NSCLC; 34.4 µM in the test on HCC-2998 colon; 3.24 µM with HOP-92 NSCLC; 36.5 µM with IGROV1 ovarian; 3.98 µM in the test on K-562 leukemia; 3.65 µM in the test with MALME-3M melanoma. Further, the TGI in the test on NCI-H23 lung is 12.9 µM; in the test on OVCAR-5 ovarian, 21.4 µM; with RXF 393 renal, 3.33 µM; in the test on SF-539 CNS it was more than 57.5 µM; with SK-OV-3 ovarian, 38.1 µM; in the test on U251 CNS it was 34 µM.

In general, GI50 refers to the concentration giving 50% growth inhibition. The term TGI denotes the concentration giving total growth inhibition. Low values mean more potent growth arrest, high ones less potent growth arrest.

These data come from PubChem BioAssay (NCI).
